Source: US6699676B1, “Uses of ouabain and ouabain-like molecules in apoptosis related pathologies” (Corporation du Centre de Recherche du Centre, Hospitalier …, priority 1999, dated 2004)

Experiments:
Format in all cases: cell-based, rat
[1] = system: VSMC-E1A; test: Intracellular Na+ and K+ content in VSMC-E1A; conditions: for Intracellular cations K^+i / Intracellular cations Na^+i: ouabain-treated VSMC-E1A, 1 mM, 6 hours
Method: FIG. 1. Kinetics of modulation of intracellular Na^+ (1, 2) and K^+ (3, 4) content by ouabain in VSMC-E1A (1, 3) and Jurkat cells (2, 4). Cells were preincubated for 24 hours in the presence of 10% calf serum in control medium consisting of 91 mM NaCl, 5 mM KCl, 0.9 mM NaH2PO4, 44 mM NaHCO3, 1.8 mM CaCl2, 0.8 mM MgCl2, 33 mM HEPES and 5 mM D-glucose (pH 7.4) with 2 μCi/ml of ^22Na or 0.5 μCi/ml ^86Rb, and 1 mM ouabain was added at the time interval indicated by the arrow. At specific time-points, intracellular Na^+ and K content + was measured as described in Experimental Procedures. Mean values±S.E. obtained in experiments performed in quadruplicate (VSMC-E1A) or triplicate (Jurkat cells) are given.
To estimate chromatin cleavage, cells were incubated for 1 hr in the presence of 10% calf serum (CS) in the control solution (DMEM, [Na^+]=137 mM; [K^+]=5 mM—line 1) or under equimolar substitution of NaCl by KCl ([Na^+]=14 mM; [K^+]=128 mM—line 2) with or without 1 mM ouabain and then for an additional 6 hours in the same media with or without CS. Intracellular Na^+ and K^+ content was measured as steady-state distribution of isotopes after 24 hours preincubation of cells in control Na^+-enriched solution containing 0.5 μCi/ml ^86Rb or 2 μCilml ^22Na, and additional 6 hours incubation in Na^+—(line 1) or K^+—(line 2) enriched medium, containing 10% CS and isotopes with the same specific activity with or without 1 mM ouabain. For more details see Experimental Procedures. Mean values±S.E. obtained in 3 experiments performed in triplicate (ion content) or quadruplicate (chromatin cleavage) are given. ★p<0.001 compared to ouabain-untreated cells.
Intracellular Na^+ and K^+ content. The intracellular content of exchangeable Na^+ and K^+ was measured as steady-state distribution of extra- and intracellular ^22Na and ^86Rb, as described previously in detail (22). Briefly, to establish the steady-state distribution of isotopes, VSMC growing in 12× (^22Na) or 24× (^86Rb) well plates or ˜10^6 Jurkat cells in suspension were preincubated for 24 hours in DMEM containing 10% calf serum and 0.5 μCi/ml ^86RbCl or 2 μCi/ml ^22NaCl and then treated in media with compositions shown in FIG. 1 and Tables 3 and 4 and with the same specific radioactivity. At the end of incubation, the VSMC were transferred on ice, washed 4 times with 2 ml of ice-cold medium W, containing 100 mM MgCl2 and 10 mM HEPES-tris buffer (pH 7.4), and lysed with SDS/EDTA mixture. One ml of Jurkat cell suspension was applied on a Whatman type C filter with the cells being washed with 3×5 ml aliquots of ice-cold medium W under negative pressure of 20-30 mm Hg. Radioactivity of the incubation medium and cell lysate was measured with a liquid scintillation analyzer and intracellular cation content was determined as A/am, where A was the radioactivity of the samples (cpm), a was the specific radioactivity of Na^+ and K^+(^86Rb) in the medium (cpm/nmol), and m was the protein content determined by Lowry methods.

[2] = system: VSMC; test: DNA synthesis, serum-induced [3H]-thymidine incorporation in VSMC
Method: As with ouabain, VSMC apoptosis was blocked by inhibition of the Na^+,K^+ pump in K^+-depleted medium (Table 1). […] DNA synthesis in VSMC, measured as serum-induced [^3H]-thymidine incorporation, was also insensitive to 5 hours preincubation with ouabain and was decreased by ˜60% only after 48 hours of the Na^+, K^+ pump inhibition (data not presented).

[3] = system: VSMC-E1A; test: Cell morphology by phase contrast microscopy in VSMC-E1A; conditions: 1 mM ouabain pretreatment, 6 hours serum-deprived medium
Method: FIG. 3. Effect of ouabain on morphology (A) and DNA laddering (B and C) in VSMC-E1A. In experiments with ouabain, cells were pretreated with 1 mM of this compound 1 hour before 6 hours exposure to serum-free medium. A. Cell morphology was evaluated by phase contrast microscopy without preliminary fixation. a, c) DMEM containing 10% calf serum; b, d) serum-free DMEM; a, b) without ouabain; c, d) in the presence of ouabain. Micro graphs were prepared using a Nikon phase contrast microscope at ×100 magnification. Apoptotic cells are shown by arrows. B. DNA laddering (left part of the figure) was analyzed with a PhosphorImager, and relative content of low molecular weight DNA fragments (1,500−125 bp−right part of the figure) in cells incubated with 10% calf serum (CS) in the absence of ouabain was taken as 100%. Means±S.E. obtained in 2 experiments performed in triplicate are shown.

C[C@@H]1O[C@@H](O[C@H]2C[C@@H](O)[C@]3(CO)[C@H]4[C@H](O)C[C@]5(C)[C@@H](C6=CC(=O)OC6)CC[C@]5(O)[C@@H]4CC[C@]3(O)C2)[C@H](O)[C@H](O)[C@H]1O [Ouabain, 1β,3β,5,11α,14,19-hexahydroxycard 20 [22]-enolide 3-[6-deoxy-α-L-mannopyrano-sidel]]
intracellular Na^+ content ([1]; VSMC-E1A, after 2 hours of 1 mM ouabain (from 38±8)): 283±30 nmol/mg proteins | K^+i content ([1]; VSMC-E1A, after 2 hours of 1 mM ouabain (from 405±41)): 131±19 nmol/mg proteins | Na^+i and K^+i content on prolongation of incubation ([1]; VSMC-E1A, ouabain for up to 5 hours versus 2 hours): did not significantly modify | Intracellular cations K^+i ([1]; medium [Na+]o=14, [K+]o=128 mM): 293 nmol/mg prot | Intracellular cations Na^+i ([1]; medium [Na+]o=14, [K+]o=128 mM): 51 nmol/mg prot | Intracellular cations K^+i ([1]; medium [Na+]o=137, [K+]o=5 mM): 99 nmol/mg prot | Intracellular cations Na^+i ([1]; medium [Na+]o=137, [K+]o=5 mM): 312 nmol/mg prot | DNA synthesis, serum-induced [^3H]-thymidine incorporation ([2]; 5 hours preincubation with ouabain): insensitive | decrease of DNA synthesis, serum-induced [^3H]-thymidine incorporation ([2]; after 48 hours of Na+,K+ pump inhibition with ouabain): ~60% | number of apoptotic cells [3]: sharply decreased the number of apoptotic cells
